{
  "source": "patent US20230295436A1",
  "about": "“INTERMOLECULARLY-FABRICATED COMPOSITION FOR ENCAPSULATING PLANT MATERIALS, AGROCHEMICALS AND PHARMACEUTICALS” (University of Central Florida Research Foundation, Inc., priority 2022, published 2023)",
  "key": {"S16 Rat Schwann Cells": {"system": "S16 Rat Schwann Cells", "experiment": "AlamarBlue viability assay, S16", "assay_type": "cell-based", "conditions": "S16 RSCs, 24 hours, 0 to 80 μM curcumin", "method": "The viability of cells when treated with Cur-TA-PVP, TA-PVP, or free curcumin was assessed to determine the therapeutic window of treatments. This was done by performing an alamarBlue (resazurin) assay according to the manufacturer's instructions. The cell types assessed were models for those involved in PNI and subsequent PNR: S16 rat Schwann cells (RSCs), J744 murine macrophages, and SH-SY5Y cells (neuronal cell line). SH-SY5Y cells were cultured in DMEM/F12 supplemented with 10% FBS and 1% penicillin/streptomycin, whereas the J744 macrophages and S16 RSCs were cultured in DMEM supplemented with 10% FBS and 1% streptomycin/penicillin.\nFirst, cells (n=3) were seeded in 96 well plates at a density of 10^4 cells per well and incubated overnight in a humidified atmosphere at 37° C. and 5% CO2. Cur-TA-PVP and free curcumin were then introduced into the wells at a concentration range of 0 to 80 μM curcumin. In the case of TA-PVP, the concentration range was equivalent to TA and PVP concentrations in the Cur-TA-PVP NPs. The plates were incubated for 24 hours, and the media containing treatments was then removed and fresh media with 10% 0.15 mg/mL resazurin was added into all wells. The plates were incubated for 2 hours, and the fluorescence was read using a Tecan plate reader at an ex/em of 560/590 nm. The cell viability was calculated using the following equation."}, "[1]": {"experiment": "Appearance / colloidal stability in water", "assay_type": "physicochemical", "conditions": "aqueous solution", "description": "Biochim Biophys Acta, 2008. 1780(4): p. 673-9.]. Curcumin directly interacts with or leads to the upregulation of many intracellular proteins involved in anti-inflammation, antioxidant, neuroprotective, and re-myelination pathways [Caillaud, M., et al., Key Developments in the Potential of Curcumin for the Treatment of Peripheral Neuropathies. Antioxidants (Basel), 2020. 9(10).]. Thus, the therapeutic potential of free curcumin is lowered by its propensity to reside in the lipid bilayer. Since the TA-PVP carrier improves the stability of curcumin in water, it is therefore expected that this would enhance its availability within the cytoplasm of cells to reach or upregulate targets involved in achieving successful PNR. The NP formulation dramatically increases the colloidal stability of curcumin compared to its free form alone in the aqueous solution."}, "[2]": {"experiment": "Zeta potential (surface charge)", "assay_type": "physicochemical", "conditions": "optimized formulations and controls, Table 1", "description": "(§1) Malvern Zetasizer Nano ZS90 was used to study the hydrodynamic size, surface charge, and polydispersity index (PDI) of the NPs. Agilent Cary 300 Bio UV-Vis spectrophotometer was used to measure the absorbance of materials across the UV-Visible spectrum. Spectronic 200 spectrophotometer was used to carry out the degradation and release rate studies. Samples were freeze-dried using a Labconco lyophilizer. Shimadzu IRSpirit with QATR-S was used to obtain\n(§2) DLS and ZP measurements were done using a Malvern Zetasizer ZS90 to determine the samples' hydrodynamic size and surface charge, respectively. The samples were diluted to approximately 200 ppm of curcumin to obtain 100 to 1000 kilo counts per second (kcps). Samples were added into the appropriate cuvettes for DLS and ZP readings."}, "[3]": {"experiment": "Degradation rate of curcumin in aqueous solution", "assay_type": "physicochemical", "method": "The degradation rate of Cur-TA-PVP NPs and free curcumin was determined by measuring the peak absorbance over time as this can be correlated to the concentration in solution. […] Absorbance readings of samples were acquired at 425 nm every 60 minutes for 24 hours. Degradation rate equations were determined based on the trendlines that provide an R2 of 0.95 or greater. Simple linear regressions were also performed to compare the slopes of the degradation curves to determine if the difference was statistically significant."}, "SH-SY5Y cells": {"system": "SH-SY5Y cells", "experiment": "H2O2-induced oxidative stress and cell viability, SH-SY5Y", "assay_type": "cell-based", "conditions": "6 hours pre-treatment, 50 μM H2O2 for 18 hours", "method": "The potential for Cur-TA-PVP, TA-PVP, or free curcumin to rescue cells from oxidative damage induced by H2O2 was assessed to determine the antioxidant activity of the treatments in cells. The assay was performed according to a previously published protocol by Mahakunakorn et al. [Mahakunakorn, P., et al., Cytoprotective and cytotoxic effects of curcumin: dual action on H2O2-induced oxidative cell damage in NG108-15 cells. Biol Pharm Bull, 2003. 26(5): p. 725-8.]. Briefly, SH-SY5Y cells and J744 murine macrophages were each seeded in 96 well plates (n=3) and incubated overnight at 37° C. and 5% CO2. Cells were then pre-treated with fresh media containing treatments for 6 hours, and then with fresh media containing 100 μM H2O2 (J774) or 50 μM (SH-SY5Y) for another 18 hours. The media was then replaced with complete media containing 10% of 0.15 mg/mL resazurin. The cells were incubated for 2 hours, and the fluorescence was read at an ex/em of 560/590 nm. The cell viability was determined using the equation noted in section 10.3.1."}, "[4]": {"conditions": "cited from earlier work"}, "[5]": {"experiment": "Dynamic light scattering (hydrodynamic size, PDI)", "assay_type": "physicochemical", "conditions": "optimized formulations and controls, Table 1", "description": "as §1, §2"}},
  "data": [
    {"smiles": "COc1cc(/C=C/C(=O)CC(=O)/C=C/c2ccc(O)c(OC)c2)ccc1O", "note": "[Free Curcumin, curcumin]", "values": [
      {"measurement": "cell viability compared to other treatment groups", "setting": "S16 Rat Schwann Cells", "value": "higher cell viability than the other treatment groups at all concentrations"},
      {"measurement": "colloidal stability in water (appearance)", "setting": "[1]", "value": "precipitate and sink to the bottom of the vial"},
      {"measurement": "Zeta Potential", "setting": "[2]", "value": "−13", "unit": "mV"},
      {"measurement": "slope of degradation curve (simple linear regression)", "setting": "[3]; 40 μM in water, absorbance at 425 nm every 60 minutes for 24 hours", "value": "−0.01123"},
      {"measurement": "curcumin remaining in its viable form", "setting": "[3]; after 24 hours of dispersion in PBS", "value": "about 60%"},
      {"measurement": "protection against H2O2-induced oxidative stress (cell rescue)", "setting": "SH-SY5Y cells", "value": "no cell rescue"},
      {"measurement": "water solubility", "setting": "[4]", "value": 100, "unit": "µg/mL"},
      {"measurement": "Polydispersity Index (PDI)", "setting": "[5]", "value": 0.578},
      {"measurement": "Z-ave", "setting": "[5]", "value": 328, "unit": "nm·days"}
    ]}
  ]
}
